Measured values as given in BindingDB's records for doi:10.1111/j.1747-0285.2007.00615.x (Ariad Pharmaceuticals, 2008).

target: Proto-oncogene tyrosine-protein kinase Src (Mus musculus, UniProt P05480); assay: Kinase Assay
Description: 2,6,9-Trisubstituted purines were evaluated for their src kinase inhibitory activities using an ELISA assay.

Sequence of Proto-oncogene tyrosine-protein kinase Src (P05480 2-535 limits assumed): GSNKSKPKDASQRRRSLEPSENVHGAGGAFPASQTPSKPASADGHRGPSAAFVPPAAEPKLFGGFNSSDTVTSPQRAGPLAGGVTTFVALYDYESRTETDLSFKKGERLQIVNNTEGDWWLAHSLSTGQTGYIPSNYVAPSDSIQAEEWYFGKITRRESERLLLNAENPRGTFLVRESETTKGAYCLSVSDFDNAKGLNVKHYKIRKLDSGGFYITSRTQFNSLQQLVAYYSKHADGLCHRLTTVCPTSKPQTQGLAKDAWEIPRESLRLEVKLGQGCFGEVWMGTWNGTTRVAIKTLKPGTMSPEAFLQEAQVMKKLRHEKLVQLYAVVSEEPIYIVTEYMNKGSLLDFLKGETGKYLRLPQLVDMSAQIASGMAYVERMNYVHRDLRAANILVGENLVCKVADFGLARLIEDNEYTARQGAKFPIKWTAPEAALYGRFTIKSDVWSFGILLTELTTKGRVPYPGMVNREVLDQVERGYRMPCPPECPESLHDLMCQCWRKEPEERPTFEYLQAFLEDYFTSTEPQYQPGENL

Row | SMILES | IC50 [nM]
1 | CCn1cnc2c(Nc3ccc(P(=O)(O)CP(=O)(O)O)cc3)nc(C3CCNCC3)nc21 [2,6,9-Trisubstituted Purine, 4] | 665
2 | CCn1cnc2c(Nc3ccc(P(=O)(O)CP(=O)(O)O)cc3)nc(CC3CCNCC3)nc21 [2,6,9-Trisubstituted Purine, 5] | 2310
3 | CCn1cnc2c(Nc3ccc(P(=O)(O)CP(=O)(O)O)cc3)nc(CCC3CCNCC3)nc21 [2,6,9-Trisubstituted Purine, 6] | 1010
4 | CCn1cnc2c(Nc3ccc(P(=O)(O)CP(=O)(O)O)cc3)nc(CC3CCCNC3)nc21 (stereo not drawn) [2,6,9-Trisubstituted Purine, 7] | 2300
5 | CCn1cnc2c(Nc3ccc(P(=O)(O)CP(=O)(O)O)cc3)nc(C[C@H]3CC[C@H](N)CC3)nc21 [2,6,9-Trisubstituted Purine, 9] | 205
6 | CCn1cnc2c(Nc3ccc(P(=O)(O)CP(=O)(O)O)cc3)nc(C[C@H]3CC[C@@H](N)CC3)nc21 [2,6,9-Trisubstituted Purine, 10] | 101
7 | CCn1cnc2c(Nc3ccc(P(=O)(O)CP(=O)(O)O)cc3)nc(CCCCN)nc21 [2,6,9-Trisubstituted Purine, 11] | 2110
8 | CCn1cnc2c(Nc3ccccc3)nc([C@H]3CC[C@H](N)CC3)nc21 [2,6,9-Trisubstituted Purine, AP23517] | 73
